Experimental data reported in article PMC9516332 (Frontiers in Oncology, 2022).
Where two headings read alike, the source gives them in different places.

Test system: 134 cancer cell lines
Assay: Cell viability assay (ATPlite, 72 hours), IC50 on cancer cell line panel

For `Cn1cnc2c(F)c(Nc3ccc(Br)cc3F)c(C(=O)NOCCO)cc21` [binimetinib], the IC50 (Homo sapiens, MOLM-13, read-out: IC50 in cell proliferation assay, MOLM-13 cell line (FLT3 ITD)) was 1030 nM, the IC50 (Homo sapiens, MOLT-4, read-out: IC50 in cell proliferation assay, MOLT-4 cell line) was > 31600 nM and the IC50 (Homo sapiens, MV4-11, read-out: IC50 in cell proliferation assay, MV4-11 cell line (FLT3 ITD)) was 511 nM. For the same compound, the IC50 (Homo sapiens, MeWo, read-out: IC50 in cell proliferation assay, MeWo cell line) was 117 nM, the IC50 (Homo sapiens, NCCIT, read-out: IC50 in cell proliferation assay, NCC-IT cell line) was 12100 nM and the IC50 (Homo sapiens, NCI-H82, read-out: IC50 in cell proliferation assay, cell line NCI-H82) was > 31600 nM. The IC50 (Homo sapiens, NCI-H460, read-out: IC50 in cell proliferation assay, NCI-H460 cell line) was 120 nM, the IC50 (Homo sapiens, NCI-H661, read-out: IC50 in cell proliferation assay, NCI-H661 cell line) was 3310 nM and the IC50 (Homo sapiens, NCI-H716, read-out: IC50 in cell proliferation assay, cell line NCI-H716 (FGFR2-COL14A1)) was 27 nM. It also gave an IC50 (Homo sapiens, NCI-H1650, read-out: IC50 in cell proliferation assay, NCI-H1650 cell line (EGFR exon19del)) of 8560 nM, an IC50 (Homo sapiens, NCI-H1975, read-out: IC50 in cell proliferation assay, NCI-H1975 cell line (EGFR p.L858R + p.T790M)) of 201 nM and an IC50 (Homo sapiens, NCI-H2228, read-out: IC50 in cell proliferation assay, NCI-H2228 cell line (EML4-ALK)) of 16 nM. The IC50 (Homo sapiens, OVCAR-3, read-out: IC50 in cell proliferation assay, cell line OVCAR-3) was > 31600 nM, the IC50 (Homo sapiens, PFSK-1, read-out: IC50 in cell proliferation assay, cell line PFSK-1) was > 31600 nM and the IC50 (Homo sapiens, RL95-2, read-out: IC50 in cell proliferation assay, cell line RL95-2 (EGFR p.A289V)) was 24 nM. For the same compound, the IC50 (Homo sapiens, RPMI-7951, read-out: IC50 in cell proliferation assay, cell line RPMI-7951 (BRAF p.V600E)) was 199 nM, the IC50 (Homo sapiens, RS4-11, read-out: IC50 in cell proliferation assay, cell line RS4;11) was > 31600 nM and the IC50 (Homo sapiens, Rec1, read-out: IC50 in cell proliferation assay, cell line REC-1) was > 31600 nM. For the same compound, the IC50 (Homo sapiens, SHP77, read-out: IC50 in cell proliferation assay, cell line SHP-77) was > 31600 nM, the IC50 (Homo sapiens, SK-BR-3, read-out: IC50 in cell proliferation assay, cell line SK-BR-3 (ERBB2 amplification)) was > 31600 nM and the IC50 (Homo sapiens, SK-N-AS, read-out: IC50 in cell proliferation assay, cell line SK-N-AS) was 14 nM. The IC50 (Homo sapiens, SK-N-FI, read-out: IC50 in cell proliferation assay, cell line SK-N-FI) was 798 nM, the IC50 (Homo sapiens, SK-N-MC, read-out: IC50 in cell proliferation assay, cell line SK-N-MC) was > 31600 nM and the IC50 (Homo sapiens, SK-N-SH, read-out: IC50 in cell proliferation assay, cell line SK-N-SH (ALK p.F1174L)) was 59 nM. It also gave an IC50 (Homo sapiens, SNU-5, read-out: IC50 in cell proliferation assay, cell line SNU-5 (MET amplification)) of 1460 nM, an IC50 (Homo sapiens, SNU-16, read-out: IC50 in cell proliferation assay, cell line SNU-16 (FGFR2 amplification)) of 9730 nM and an IC50 (Homo sapiens, SNU-C2B, read-out: IC50 in cell proliferation assay, cell line SNU-C2B (EGFR p.R165Q)) of 176 nM. For the same compound, the IC50 (Homo sapiens, SU-DHL-1, read-out: IC50 in cell proliferation assay, cell line SU-DHL-1 (NPM1-ALK)) was 2840 nM, the IC50 (Homo sapiens, SU-DHL-6, read-out: IC50 in cell proliferation assay, cell line SU-DHL-6) was 47 nM and the IC50 (Homo sapiens, SUP-T1, read-out: IC50 in cell proliferation assay, cell line SUP-T1) was > 31600 nM. The IC50 (Homo sapiens, SW48, read-out: IC50 in cell proliferation assay, cell line SW48 (EGFR p.G719S)) was 14 nM, the IC50 (Homo sapiens, SW480, read-out: IC50 in cell proliferation assay, cell line SW480) was 739 nM and the IC50 (Homo sapiens, SW626, read-out: IC50 in cell proliferation assay, cell line SW626) was 32 nM. For the same compound, the IC50 (Homo sapiens, SW780, read-out: IC50 in cell proliferation assay, cell line SW780 (FGFR3-BAIAP2L1)) was 272 nM, the IC50 (Homo sapiens, SW837, read-out: IC50 in cell proliferation assay, cell line SW837) was 110 nM and the IC50 (Homo sapiens, SW872, read-out: IC50 in cell proliferation assay, cell line SW872 (BRAF p.V600E)) was 34 nM. For the same compound, the IC50 (Homo sapiens, SW900, read-out: IC50 in cell proliferation assay, cell line SW900) was 77 nM, the IC50 (Homo sapiens, SW948, read-out: IC50 in cell proliferation assay, cell line SW948) was 82 nM and the IC50 (Homo sapiens, SW982, read-out: IC50 in cell proliferation assay, cell line SW982 (BRAF p.V600E)) was 166 nM. The IC50 (Homo sapiens, SW-620, read-out: IC50 in cell proliferation assay, cell line SW620) was 18 nM, the IC50 (Homo sapiens, T98G, read-out: IC50 in cell proliferation assay, cell line T98G) was 11900 nM and the IC50 (Homo sapiens, TCC-SUP, read-out: IC50 in cell proliferation assay, cell line TCCSUP) was 363 nM. For the same compound, the IC50 (Homo sapiens, THP-1, read-out: IC50 in cell proliferation assay, cell line THP-1) was 17 nM, the IC50 (Homo sapiens, U2OS, read-out: IC50 in cell proliferation assay, cell line U2OS) was 4120 nM and the IC50 (Homo sapiens, U-87 MG, read-out: IC50 in cell proliferation assay, cell line U-87MG ATCC) was 8590 nM. The IC50 (Homo sapiens, U-118-MG, read-out: IC50 in cell proliferation assay, cell line U-118MG) was > 31600 nM, the IC50 (Homo sapiens, UMUC3, read-out: IC50 in cell proliferation assay, cell line UM-UC-3) was 124 nM and the IC50 (Hs766T, read-out: IC50 in cell proliferation assay, Hs 766T cell line) was 33 nM. For the same compound, the IC50 (L-82, read-out: IC50 in cell proliferation assay, L-82 cell line (NPM1-ALK)) was 1900 nM, the IC50 (Rh30, read-out: IC50 in cell proliferation assay, cell line Rh30) was > 31600 nM and the IC50 (read-out: IC50 in cell proliferation assay, 11-18 cell line (EGFR p.L858R)) was > 31600 nM. For the same compound, the IC50 (read-out: IC50 in cell proliferation assay, Hs 852.T cell line) was 271 nM, the IC50 (read-out: IC50 in cell proliferation assay, JAR cell line) was > 31600 nM and the IC50 (read-out: IC50 in cell proliferation assay, cell line 5637) was 139 nM. For the same compound, the IC50 (read-out: IC50 in cell proliferation assay, cell line A-388) was 696 nM, the IC50 (read-out: IC50 in cell proliferation assay, cell line DB) was > 31600 nM and the IC50 (read-out: IC50 in cell proliferation assay, cell line DEL (NPM1-ALK)) was > 31600 nM. For the same compound, the IC50 (read-out: IC50 in cell proliferation assay, cell line ES-2 (BRAF p.V600E)) was 188 nM, the IC50 (read-out: IC50 in cell proliferation assay, cell line PA-1) was 1350 nM and the IC50 (read-out: IC50 in cell proliferation assay, cell line PC-3) was > 31600 nM. The IC50 (read-out: IC50 in cell proliferation assay, cell line RD) was 40 nM, the IC50 (read-out: IC50 in cell proliferation assay, cell line RKO (BRAF p.V600E)) was 29 nM and the IC50 (read-out: IC50 in cell proliferation assay, cell line RL) was > 31600 nM. The IC50 (read-out: IC50 in cell proliferation assay, cell line RT-4 (FGFR3-TACC3)) was 19000 nM, the IC50 (read-out: IC50 in cell proliferation assay, cell line SR (NPM1-ALK)) was 4030 nM and the IC50 (read-out: IC50 in cell proliferation assay, cell line T24) was 60 nM. For the same compound, the IC50 (read-out: IC50 in cell proliferation assay, cell line TT (RET p.C634W)) was 1750 nM and the IC50 (read-out: IC50 in cell proliferation assay, cell line VA-ES-BJ) was 8280 nM.
